Read-outs that look alike come from different tables or passages of the source.
Target: BTK (Homo sapiens, UniProt Q06187)
Test: biochemical
[1] = read-out: BTK inhibition (%), 0.75 uM BTK, […] probe 3l, 15 min preincubation

Chain of BTK (Q06187 402-655 limits assumed): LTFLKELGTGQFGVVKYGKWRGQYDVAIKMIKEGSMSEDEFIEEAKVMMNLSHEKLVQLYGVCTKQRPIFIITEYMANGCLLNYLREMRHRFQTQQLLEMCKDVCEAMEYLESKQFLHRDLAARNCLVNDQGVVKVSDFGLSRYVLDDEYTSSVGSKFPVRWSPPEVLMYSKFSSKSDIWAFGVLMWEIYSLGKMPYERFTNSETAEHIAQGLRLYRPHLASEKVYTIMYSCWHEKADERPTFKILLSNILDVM

SMILES | inhibition at 10 µM [1] [%] | inhibition at 10 µM (read-out: BTK inhibition (%)) [%]
O=C1O[C@H]2[C@@H]3OC(=O)c4cc(O)c(O)c(O)c4-c4c(cc(O)c(O)c4O)C(=O)OC[C@H]2O[C@@H](OC(=O)c2cc(O)c(O)c(O)c2)[C@@H]3OC(=O)c2cc(O)c(O)c3c2[C@@H]2C1=CC(=O)[C@](O)(O3)C2(O)O [PCM-0216302] | 0 | –
O=C(/C=C\n1cnc(-c2cc(C(F)(F)F)cc(C(F)(F)F)c2)n1)NNc1cnccn1 [PCM-0095752] | 6.9 | –
C[C@@H]1O[C@@H](O[C@H]2[C@H](O[C@H]3CC[C@@]4(C)[C@@H](CC[C@]5(C)[C@@H]4CC=C4[C@@H]6CC(C)(C)CC[C@]6(C(=O)O[C@@H]6O[C@H](CO[C@@H]7O[C@H](CO)[C@@H](O[C@@H]8O[C@@H](C)[C@H](O)[C@@H](O)[C@H]8O)[C@H](O)[C@H]7O)[C@@H](O)[C@H](O)[C@H]6O)CC[C@]45C)[C@]3(C)CO)OC[C@H](O)[C@@H]2O)[C@H](O)[C@H](O)[C@H]1O [PCM-0215008] | -10.1 | –
NC(=S)c1ccncc1 [PCM-0214940] | 7.8 | –
O=C(Nc1cccc(Nc2ncc(Br)c(NCCc3cnc[nH]3)n2)c1)N1CCCC1 [PCM-0095062] | 85.5 | –
CC(=O)c1ccc(O)c(C(=O)O)c1 [PCM-0215053] | -9.3 | –
OC[C@@H](O)[C@H](O)[C@H](O)[C@@H](O)CO [PCM-0215034] | -10.1 | –
COc1ccc(COc2cc3oc(=O)c4cc(C(C)O)ccc4c3cc2OC)cc1 (centres unmarked) [PCM-0095280] | 15.2 | –
Cn1c(=O)c2c(ncn2CC(O)CO)n(C)c1=O (centres unmarked) [PCM-0085824] | 0.8 | –
O=C1[C@H]2CCCC[C@H]2C(=O)N1CCCCN1CCN(c2nsc3ccccc23)CC1 [PCM-0216064] | -9.3 | –
Cc1ccc2nc(NCCN)c3ncc(C)n3c2c1 [PCM-0215260] | -16.6 | –
N#Cc1cc(CN2CCC(Nc3ncnc4sc(Cl)cc34)CC2)ccc1F [PCM-0095600] | 2.3 | –
Nc1ccc(C(=O)NCC(=O)O)cc1 [PCM-0086407] | 28 | –
CCc1c2c(nc3ccc(O)cc13)-c1cc3c(c(=O)n1C2)COC(=O)[C@]3(O)CC [PCM-0091516] | -28.8 | –
COc1ccc(C2(C#N)CCC(C(=O)O)CC2)cc1OC1CCCC1 (centres unmarked) [PCM-0095129] | -29.6 | –
C[C@@H]1CC[C@H]2[C@@H](C)C(O)O[C@@H]3O[C@@]4(C)CC[C@@H]1[C@]32OO4 (some centres unmarked) [PCM-0214674] | -20.2 | –
COc1cc2c(=O)c(-c3ccc(O)cc3)coc2cc1O[C@@H]1O[C@H](CO)[C@@H](O)[C@H](O)[C@H]1O [PCM-0214955] | 15.6 | –
O=C(CCCCCCNC(=O)c1cnc(N(c2ccccc2)c2ccccc2Cl)nc1)NO [PCM-0214593] | -6.9 | –
Cl[Te]1(Cl)(Cl)OCCO1 [PCM-0215721] | – | 98.6

SMILES | inhibition at 10 µM [1] [%] | inhibition at 10 µM (read-out: BTK inhibition (%)) [%]
C=CC(=O)N1C[C@H](Nc2ncnc3[nH]ccc23)CC[C@@H]1C [PCM-0215972] | 95 | –
Cc1cccn2c(=O)c(-c3nnn[nH]3)cnc12 [PCM-0086031] | -17 | –
COCCNc1cc(NC(=O)N2CCCc3cc(CN4CCN(C)CC4=O)c(C=O)nc32)ncc1C#N [PCM-0216117] | -16.2 | –
Cc1ccccc1-n1c(Cn2ncc3c(N)ncnc32)nc2cccc(C)c2c1=O [PCM-0095248] | 4.1 | –
Nc1nc2ccc(OC(F)(F)F)cc2s1 [PCM-0065440] | -10.1 | –
CN(CC(=O)O)C(N)=NP(=O)(O)O [PCM-0215959] | -5.1 | –
C[C@H]1[C@H](C)CC[C@]2(C(=O)O)CC[C@]3(C)C(=CC[C@@H]4[C@@]5(C)CC[C@H](O)C(C)(C)[C@@H]5CC[C@]43C)[C@H]12 [PCM-0214657] | 10.9 | –
O=c1ccn([C@@H]2O[C@H](CO)[C@@H](O)[C@H]2O)c(=O)[nH]1 [PCM-0091168] | 7.8 | –
CCn1cc(C(=O)O)c(=O)c2cc(F)c(N3CCNC(C)C3)c(F)c21 (centres unmarked) [PCM-0065465] | -2.6 | –
COc1ccc(C2=N[C@@H](c3ccc(Cl)cc3)[C@@H](c3ccc(Cl)cc3)N2C(=O)N2CCNC(=O)C2)c(OC(C)C)c1 [PCM-0094990] | 14.5 | –
C[C@H](Nc1ncnc2nc[nH]c12)c1cc2ccc(F)cc2nc1-c1ccccn1 [PCM-0215539] | 3.4 | –
CC(=O)O[C@@H](C[C@@H](C)C1=C2C[C@H](O)[C@H]3[C@@]4(C)CCC(=O)C(C)(C)[C@@H]4CC[C@]3(C)[C@@]2(C)CC1)[C@H]1OC1(C)C [PCM-0216390] | -4.6 | –
O=C(O)[C@@]1(CCCCCCOc2ccc(Cl)cc2)CO1 [PCM-0215742] | -1.5 | –
Cc1cc2c(s1)Nc1ccccc1N=C2N1CCN(C)CC1 [PCM-0064824] | -8.6 | –
Cc1ccnc2c1NC(=O)c1cccnc1N2C1CC1 [PCM-0090346] | -3.1 | –
COc1cc(O)c2c(=O)cc(-c3ccc(O)c(O)c3)oc2c1 [PCM-0216461] | 61 | –
COc1cc(OC)c(OC)cc1C=O [PCM-0091340] | – | -12.4
COC(=O)C1=CO[C@@H](O[C@@H]2O[C@H](CO)[C@@H](O)[C@H](O)[C@H]2O)[C@@H]2[C@H](C)O[C@@H](O)C[C@H]12 [PCM-0216177] | -19.3 | –

Continued, in another order:

inhibition at 10 µM [1] [%] | SMILES | inhibition at 10 µM (read-out: BTK inhibition (%)) [%]
-24.1 | OCCc1c[nH]c2ccccc12 [PCM-0215120] | –
5.4 | Cc1ccc(C=C2C(=O)C3(C)CCC2C3(C)C)cc1 (centres unmarked) [PCM-0214882] | –
51.7 | O=C(O)CSc1cc(NS(=O)(=O)c2ccc(Br)cc2)c2ccccc2c1O [PCM-0215378] | –
-11.7 | COc1cc2ncnc(Oc3ccc(CC(=O)Nc4cnn(C(C)C)c4)cc3)c2cc1OC [PCM-0215465] | –
-19.5 | CN[C@H]1CC[C@@H](c2ccc(Cl)c(Cl)c2)c2ccccc21 [PCM-0064965] | –
1.5 | CC(=O)OC/C=C(/C)CCC=C(C)C [PCM-0216620] | –
-2.8 | Nc1nccc(Oc2ccc3c(C(=O)Nc4cccc(C(F)(F)F)c4)cccc3c2)n1 [PCM-0215714] | –
6.8 | c1cc(CN2CCCNCCNCCCNCC2)ccc1CN1CCCNCCNCCCNCC1 [PCM-0095456] | –
13.1 | CC(=O)c1ccc(NN=C(C(N)=O)C2=NC(C)(C)Cc3ccccc32)cc1 [PCM-0215663] | –
79.5 | CN1CCN(Cc2ccc(NC(=O)Nc3ccc(Oc4cc(NC(=O)C5CC5)ncn4)cc3)cc2C(F)(F)F)CC1 [PCM-0215388] | –
-16.3 | COc1ccc(CC2c3cc(OC)c(OC)cc3CC[N+]2(C)CCC(=O)OCCCCCOC(=O)CC[N+]2(C)CCc3cc(OC)c(OC)cc3C2Cc2ccc(OC)c(OC)c2)cc1OC (centres unmarked) [PCM-0085763] | –
6.9 | CC[C@@H]1/C=C(\C)C[C@H](C)C[C@H](OC)[C@H]2O[C@@](O)(C(=O)C(=O)N3CCCC[C@H]3C(=O)O[C@H](/C(C)=C/[C@@H]3CC[C@@H](O)[C@H](OC)C3)[C@H](C)[C@@H](O)CC1=O)[C@H](C)C[C@@H]2OC [PCM-0215308] | –
13.6 | NC(=O)C[C@H](N)C(=O)O [PCM-0216200] | –
7.6 | Cc1nc(NC(=O)N2CCC[C@H]2C(N)=O)sc1-c1csc(C(C)(C)C)n1 [PCM-0095518] | –
9 | CC[C@]1(O)C[C@H]2CN(CCc3c([nH]c4ccccc34)[C@@](C(=O)OC)(c3cc4c(cc3OC)N(C=O)[C@H]3[C@@](O)(C(=O)OC)[C@H](OC(C)=O)[C@]5(CC)C=CCN6CC[C@]43[C@@H]65)C2)C1 [PCM-0214794] | –
11.7 | O=C1C[C@@H](c2ccccc2)Oc2cc(O)cc(O)c21 [PCM-0214944] | –

Source: publication PMC8041284, “Tunable Methacrylamides for Covalent Ligand Directed Release Chemistry” (Journal of the American Chemical Society, 2021)
